From patent US9023789B2, “Amylin analogs and pharmaceutical compositions thereof” (Novo Nordisk A/S, priority 2012, dated 2015) come the findings set out here.

Like-named read-outs stand apart in the source and are kept apart here. Numbered stars: 1 amine (or outer) side, 2 acyl side, 3 side chain; on linkers, the order of the positions; unused ones are H or OH. Bridge positions count the residues as written; N and C are the ends. Side chains are listed from the residue outwards. Peptide text beside a SMILES is read from it. * marks the point of attachment. C20 diacid = O=C(O)CCCCCCCCCCCCCCCCCCC(=O)*; γGlu = O=C(O)[C@H](CCC(=O)[*:2])N[*:1]

In experiment [1] the target is T1, human calcitonin (a) receptor in BHK570 cells (Homo sapiens, UniProt P30988).
T1 construct: expressed in transfected cells
T1 sequence (P30988 25-474): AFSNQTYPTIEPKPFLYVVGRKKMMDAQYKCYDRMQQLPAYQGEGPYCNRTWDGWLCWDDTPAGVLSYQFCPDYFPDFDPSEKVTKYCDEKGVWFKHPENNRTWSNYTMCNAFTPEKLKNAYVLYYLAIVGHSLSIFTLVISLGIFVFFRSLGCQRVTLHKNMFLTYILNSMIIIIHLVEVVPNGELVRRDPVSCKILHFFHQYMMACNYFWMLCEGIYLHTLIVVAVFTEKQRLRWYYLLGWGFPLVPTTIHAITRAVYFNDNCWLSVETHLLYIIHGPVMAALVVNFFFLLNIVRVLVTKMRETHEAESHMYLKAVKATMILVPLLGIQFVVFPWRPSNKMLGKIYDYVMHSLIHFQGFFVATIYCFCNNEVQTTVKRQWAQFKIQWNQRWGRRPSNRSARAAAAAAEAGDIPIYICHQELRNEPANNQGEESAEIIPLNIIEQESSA
The experiment is described as follows: ASSAY (II)a functional assay, human calcitonin receptor (CRE luciferase). In kind it is cell-based. In outline:
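BHK cells stably carrying a CRE-luciferase reporter plus calcitonin receptor, or calcitonin receptor with RAMP-3 for the amylin 3(a) receptor, were seeded and kept overnight at 37° C. Compounds were added in assay medium with 10% FBS and 10 mM Hepes, pH 7.4, for 3 hours at 37° C, then luminescence was counted.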

Experiment [2] addresses T2, human calcitonin receptor (Homo sapiens, UniProt P30988).
T2 construct: expressed in transfected cells
T2 sequence (P30988 25-474): T1 sequence (P30988 25-474)
Nature of the experiment: ASSAY (VII) binding to the human calcitonin receptor (SPA, 125I-Calcitonin).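 Further: cell membranes (35 ng/µL) combined with SPA beads in 40 µL of pH 7.4 Hepes buffer, 384-well format, signal counted on a TopCounter instrument.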
Procedure: Membranes were prepared in the following way; the cells were rinsed with PBS and incubated with Versene for approximately 5 min before harvesting. The cells were flushed with PBS and the cell-suspension was centrifuged for 5 min at 1000 rpm. […] The resulting pellet was resuspended in buffer 2 and protein concentration was measured (BCA protein Assay, Pierce). The homogenate was kept cold during the whole procedure. The membranes were kept at −80° C. until use. Assay was performed in a 384 well Optiplate (PerkinElmer) in a total volume of 40 ul. Membranes were mixed with SPA beads. Final concentration of membranes 35 ng/μL final and Final concentration of SPA beads was 0.05 mg/well. Test-compounds were dissolved in DMSO and further diluted in assay buffer (50 mM Hepes, pH 7.4, 1 mM CaCl2, 5 mM MgCl2, 0.1% OA and 0.02% Tween20). […] Samples were analyzed on TopCounter™ (Packard).

In experiment [3] the target is T3, rat amylin receptor (rat calcitonin receptor + rat RAMP 3) (Rattus norvegicus, UniProt P32214+Q9JJ73).
T3 construct: expressed in transfected cells; host or cells: BHK tk'ts 13 (transient, FuGENE 6), membranes
T3 sequence (P32214 25-479 isoform P32214-2 limits assumed): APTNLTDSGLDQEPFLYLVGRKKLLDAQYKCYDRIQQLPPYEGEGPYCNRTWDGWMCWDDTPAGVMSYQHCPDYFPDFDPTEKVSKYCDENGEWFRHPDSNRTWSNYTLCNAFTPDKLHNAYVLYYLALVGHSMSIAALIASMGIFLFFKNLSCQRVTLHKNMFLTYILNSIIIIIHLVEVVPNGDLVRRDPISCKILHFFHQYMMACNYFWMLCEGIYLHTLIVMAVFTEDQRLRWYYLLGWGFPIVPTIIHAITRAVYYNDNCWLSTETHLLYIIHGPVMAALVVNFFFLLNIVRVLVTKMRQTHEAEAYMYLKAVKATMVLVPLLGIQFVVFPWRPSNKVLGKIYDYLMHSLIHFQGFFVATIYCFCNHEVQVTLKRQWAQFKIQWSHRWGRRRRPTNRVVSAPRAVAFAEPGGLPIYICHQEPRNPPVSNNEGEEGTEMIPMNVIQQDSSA
T3 sequence (Q9JJ73 23-147 partner): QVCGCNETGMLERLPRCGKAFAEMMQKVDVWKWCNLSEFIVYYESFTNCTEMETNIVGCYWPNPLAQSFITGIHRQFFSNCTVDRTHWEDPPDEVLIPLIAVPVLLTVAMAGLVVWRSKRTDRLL
The experiment is described as follows: ASSAY (VI) binding to the rat amylin receptor. In outline:
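Binding to the rat amylin receptor was determined with membrane preparations. The receptor was expressed by transiently transfecting BHK tk′ts 13 cells with rat calcitonin receptor, using FuGENE® 6 (Roche) according to the manufacturer's recommendations. Roughly 48 hours later the cells were harvested and their membranes isolated.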

The mark [4] stands for this setting: Table 7, binding to rat amylin receptor, read-out: rAmylin-R bind IC50.
Setting [5] is: Table 7, rat binding selectivity, rCTR IC50 / rAmylin-R IC50.
Setting [6] is: Table 7a (preferred compounds), rat binding selectivity, rCTR IC50 / rAmylin-R IC50.
[7] abbreviates: ratio of rCTR bind IC50 to rAmylin-R bind IC50.

For the molecule `CC[C@H](C)[C@H](NC(=O)[C@H](C)NC(=O)CNC(=O)[C@H](Cc1ccccc1)NC(=O)[C@H](CC(N)=O)NC(=O)[C@@H]1CCCN1C(=O)[C@H](CO)NC(=O)[C@H](CO)NC(=O)[C@H](Cc1c[nH]cn1)NC(=O)[C@H](CCCNC(=N)N)NC(=O)[C@H](CC(C)C)NC(=O)[C@H](Cc1ccccc1)NC(=O)[C@H](CCC(=O)O)NC(=O)[C@H](C)NC(=O)[C@H](CC(C)C)NC(=O)[C@H](CCCNC(=N)N)NC(=O)[C@H](CCC(N)=O)NC(=O)[C@@H](NC(=O)[C@H](C)NC(=O)[C@@H]1CSSC[C@H](NC(=O)[C@H](CCCCN)NC(=O)CC[C@H](NC(=O)CCCCCCCCCCCCCCCCCCC(=O)O)C(=O)O)C(=O)N[C@@H](CC(N)=O)C(=O)N[C@@H]([C@@H](C)O)C(=O)N[C@@H](C)C(=O)N[C@@H]([C@@H](C)O)C(=O)N1)[C@@H](C)O)C(=O)N[C@@H](CC(C)C)C(=O)N1CCC[C@H]1C(=O)N[C@@H](CO)C(=O)N[C@H](C(=O)N[C@@H](CC(N)=O)C(=O)N[C@H](C(=O)NCC(=O)N[C@@H](CO)C(=O)N[C@@H](CCC(=O)O)C(=O)N[C@H](C(=O)N[C@@H](Cc1ccc(O)cc1)C(N)=O)[C@@H](C)O)C(C)C)[C@@H](C)O` [Example 33] ({C20 diacid-γGlu}-KCNTATCATQRLAEFLRHSSPNFGAILPSTNVGSETY-NH2; disulfide 2-7), the EC50 in experiment [1] (read-out: hCTR funct. EC50) is 0.528 nM. The IC50 turned out to be 3.61 nM in experiment [2] (read-out: hCTR bind IC50) and 2.29 nM in experiment [3] (setting [4]). In addition, the “Ratio rCT/rAmylin binding” value in experiment [3] (setting [5]) and in experiment [3] (setting [6]) was 12.6 throughout.
As to `CC[C@H](C)[C@H](NC(=O)[C@H](C)NC(=O)CNC(=O)[C@H](Cc1ccccc1)NC(=O)[C@H](CC(N)=O)NC(=O)[C@@H]1CCCN1C(=O)[C@H](CO)NC(=O)[C@H](CO)NC(=O)[C@H](Cc1c[nH]cn1)NC(=O)[C@H](CCCNC(=N)N)NC(=O)[C@H](CC(C)C)NC(=O)[C@H](Cc1ccccc1)NC(=O)[C@H](C)NC(=O)[C@H](C)NC(=O)[C@H](CC(C)C)NC(=O)[C@H](CCCNC(=N)N)NC(=O)[C@H](CCC(N)=O)NC(=O)[C@@H](NC(=O)[C@H](C)NC(=O)[C@@H]1CSSC[C@H](NC(=O)[C@H](CCCNC(=N)N)NC(=O)CNC(=O)CC[C@H](NC(=O)CCCCCCCCCCCCCCCCCCC(=O)O)C(=O)O)C(=O)N[C@@H](CC(N)=O)C(=O)N[C@@H]([C@@H](C)O)C(=O)N[C@@H](C)C(=O)N[C@@H]([C@@H](C)O)C(=O)N1)[C@@H](C)O)C(=O)N1CCC[C@H]1C(=O)N[C@@H](CO)C(=O)N[C@@H](CO)C(=O)N[C@H](C(=O)N[C@@H](CC(N)=O)C(=O)N[C@H](C(=O)NCC(=O)N1CCC[C@H]1C(=O)N[C@@H](CC(N)=O)C(=O)N[C@H](C(=O)N[C@@H](Cc1ccc(O)cc1)C(N)=O)[C@@H](C)O)C(C)C)[C@@H](C)O` [Example 103] ({C20 diacid-γGlu}-GRCNTATCATQRLAAFLRHSSPNFGAIPSSTNVGPNTY-NH2; disulfide 3-8), in experiment [1], the EC50 stood at 0.148 nM. Moreover, the IC50 in experiment [2] worked out at 3 nM; in experiment [3], 0.436 nM. The “Ratio rCT/rAmylin binding” value in experiment [3] (setting [5]), in experiment [3] (setting [6]) and in experiment [3] (setting [7]) was 129.1 each time.
Take `CC[C@H](C)[C@H](NC(=O)[C@H](C)NC(=O)CNC(=O)[C@H](Cc1ccccc1)NC(=O)[C@H](CC(N)=O)NC(=O)[C@@H]1CCCN1C(=O)[C@H](CO)NC(=O)[C@H](CO)NC(=O)[C@H](Cc1c[nH]cn1)NC(=O)[C@H](CCCNC(=N)N)NC(=O)[C@H](CC(C)C)NC(=O)[C@H](Cc1ccccc1)NC(=O)[C@H](Cc1c[nH]cn1)NC(=O)[C@H](C)NC(=O)[C@H](CC(C)C)NC(=O)[C@H](CCCNC(=N)N)NC(=O)[C@H](CCC(N)=O)NC(=O)[C@@H](NC(=O)[C@H](C)NC(=O)[C@@H]1CSSC[C@H](NC(=O)[C@@H](N)CCCCNC(=O)CC[C@H](NC(=O)CCCCCCCCCCCCCCCCCCC(=O)O)C(=O)O)C(=O)N[C@@H](CC(N)=O)C(=O)N[C@@H]([C@@H](C)O)C(=O)N[C@@H](C)C(=O)N[C@@H]([C@@H](C)O)C(=O)N1)[C@@H](C)O)C(=O)N1CCC[C@H]1C(=O)N[C@@H](CO)C(=O)N[C@@H](CO)C(=O)N[C@H](C(=O)N[C@@H](CC(N)=O)C(=O)N[C@H](C(=O)NCC(=O)N1CCC[C@H]1C(=O)N[C@@H](CC(N)=O)C(=O)N[C@H](C(=O)N1CCC[C@H]1C(N)=O)[C@@H](C)O)C(C)C)[C@@H](C)O` [Example 115] (H-K([γGlu-C20 diacid])CNTATCATQRLAHFLRHSSPNFGAIPSSTNVGPNTP-NH2; disulfide 2-7 (inferred); N-terminus assumed): in experiment [1] (read-out: hCTR funct. EC50), the EC50 was found to be 0.04 nM. Moreover, the IC50 in experiment [2] (read-out: hCTR bind IC50) was determined as 0.157 nM; in experiment [3] (setting [4]) it was 0.125 nM. For the same molecule, the “Ratio rCT/rAmylin binding” value in experiment [3] (setting [5]) came out at 3.0.
As for `CC[C@H](C)[C@H](NC(=O)[C@H](C)NC(=O)CNC(=O)[C@H](Cc1ccccc1)NC(=O)[C@H](CC(N)=O)NC(=O)[C@@H]1CCCN1C(=O)[C@H](CO)NC(=O)[C@H](CO)NC(=O)[C@H](Cc1c[nH]cn1)NC(=O)[C@H](CCCNC(=N)N)NC(=O)[C@H](CC(C)C)NC(=O)[C@H](Cc1ccccc1)NC(=O)[C@H](CCC(=O)O)NC(=O)[C@H](C)NC(=O)[C@H](CC(C)C)NC(=O)[C@H](CCCNC(=N)N)NC(=O)[C@H](CCC(N)=O)NC(=O)[C@@H](NC(=O)[C@H](C)NC(=O)[C@@H]1CSSC[C@H](NC(=O)[C@@H](N)CCCCNC(=O)CC[C@H](NC(=O)CCCCCCCCCCCCCCCCCCC(=O)O)C(=O)O)C(=O)N[C@@H](CC(N)=O)C(=O)N[C@@H]([C@@H](C)O)C(=O)N[C@@H](C)C(=O)N[C@@H]([C@@H](C)O)C(=O)N1)[C@@H](C)O)C(=O)N1CCC[C@H]1C(=O)N[C@@H](CO)C(=O)N[C@@H](CO)C(=O)N[C@H](C(=O)N[C@@H](CC(N)=O)C(=O)N[C@H](C(=O)NCC(=O)N[C@@H](CCCNC(=N)N)C(=O)N[C@@H](CCC(=O)O)C(=O)N[C@H](C(=O)N[C@@H](Cc1ccc(O)cc1)C(N)=O)[C@@H](C)O)C(C)C)[C@@H](C)O` [Example 108] (H-K([γGlu-C20 diacid])CNTATCATQRLAEFLRHSSPNFGAIPSSTNVGRETY-NH2; disulfide 2-7; N-terminus assumed), the EC50 in experiment [1] (read-out: hCTR funct. EC50) came to 2.75 nM. The IC50 in experiment [2] (read-out: hCTR bind IC50) is 6.62 nM; in experiment [3] (setting [4]), 1.06 nM. Further, the “Ratio rCT/rAmylin binding” value in experiment [3] (setting [5]), in experiment [3] (setting [6]) and in experiment [3] (setting [7]) was 81.1 throughout.
`CC[C@H](C)[C@H](NC(=O)[C@H](C)NC(=O)CNC(=O)[C@H](Cc1ccccc1)NC(=O)[C@H](CC(N)=O)NC(=O)[C@@H]1CCCN1C(=O)[C@H](CO)NC(=O)[C@H](CO)NC(=O)[C@H](Cc1c[nH]cn1)NC(=O)[C@H](CCCNC(=N)N)NC(=O)[C@H](CC(C)C)NC(=O)[C@H](Cc1ccccc1)NC(=O)[C@H](CC(N)=O)NC(=O)[C@H](C)NC(=O)[C@H](CC(C)C)NC(=O)[C@H](CCCNC(=N)N)NC(=O)[C@H](CCC(N)=O)NC(=O)[C@@H](NC(=O)[C@H](C)NC(=O)[C@@H]1CSSC[C@H](NC(=O)[C@H](CCCCN)NC(=O)CC[C@H](NC(=O)CCCCCCCCCCCCCCCCCCC(=O)O)C(=O)O)C(=O)N[C@@H](CC(N)=O)C(=O)N[C@@H]([C@@H](C)O)C(=O)N[C@@H](C)C(=O)N[C@@H]([C@@H](C)O)C(=O)N1)[C@@H](C)O)C(=O)N1CCC[C@H]1C(=O)N[C@@H](CO)C(=O)N[C@@H](CO)C(=O)N[C@H](C(=O)N1CCC[C@H]1C(=O)N[C@H](C(=O)NCC(=O)N[C@@H](CO)C(=O)N[C@@H](CCC(=O)O)C(=O)N[C@H](C(=O)N[C@@H](Cc1ccc(O)cc1)C(N)=O)[C@@H](C)O)C(C)C)[C@@H](C)O` [Example 28] ({C20 diacid-γGlu}-KCNTATCATQRLANFLRHSSPNFGAIPSSTPVGSETY-NH2; disulfide 2-7 (inferred)): in experiment [1] (read-out: hCTR funct. EC50), the EC50 was 2.03 nM. Moreover, the values for the IC50 in experiment [2] (read-out: hCTR bind IC50) and in experiment [3] (setting [4]) were 12.5 nM and 1.22 nM, respectively. The “Ratio rCT/rAmylin binding” value in experiment [3] (setting [5]), in experiment [3] (setting [6]) and in experiment [3] (setting [7]) was 44.9 in each case.
